According to patent US20250313849A1, “OPTOGENETIC INDUCTION OF MEMBRANELESS ORGANELLES” (UNIVERSITY OF PITTSBURGH-OF THE COMMONWEALTH SYSTEM OF …, priority 2017, published 2025):
“Also recorded” adds a separate entry of the source.

What was measured:
Type in all cases: cell-based
protein synthesis = experiment: De novo protein synthesis, HPG incorporation with Click-iT detection
Method: FIGS. 14A-14B. […] The major function of endogenous stress granules is to bind mRNAs and halt protein synthesis until the cellular stress is removed. To test this, cells expressing G3BP1-NcVVDY50W were either exposed to blue light stimulation or not for 30 minutes and protein translation was assessed. Prior to the translation assay, cells were treated with cyclohexamide for one hour to inhibit protein synthesis and then the cyclohexamide was removed and cells were provided L-Homopropargylglycine (HPG) for one hour. HPG acts as a methionine amino acid analog and is incorporated into newly synthesized proteins. Click-iT™ chemistry was then performed to detect HPG and cells were imaged. Green signal indicates newly synthesized proteins during the time at which HPG is present in the media.
FIGS. 24A-24E. Replacing the G3BP1 NTF2 domain, which is required for G3BP1 self-oligomerization (optoSG), with oligomerizing photoreceptors, is sufficient to initiate the formation of optogenetic stress granules. FIG. 24A) Schematics of an additional approach to seed optoStress Granules (optoSGs) employing truncated G3BP1 protein and replacing the NTF2 oligomerizing domain with a photoreceptor with the capacity to oligomerize (in this instance Cry2-PHR, but also works with chronic stimulation of dimerizing photoreceptor). FIG. 24B) HEK cells expressing Cry2 PHR-[…]NTF-G3BP1 were exposed to blue light LED stimulation for 30 minutes to induce the formation of optoSGs.

[1] = tested on: ReNCell differentiated cortical neuron-like cells; experiment: Blue light induced stress granules in ReNCell differentiated cortical neuron-like cells
Source text: FIG. 20. Blue light induced stress granules using a G3BP1-NcVVDY50W protein arrangement in ReNCell differentiated cortical neuron-like cells. A DNA arrangement that generates the G3BP1-NcVVDY50W was developed and expressed in ReNCell differentiated cortical neuron-like cells. To confirm differentiation of ReN cells to cortical neuron-like cells, cultures were probed for MAP2, a protein that is only expressed in neurons. Under normal conditions, the NcVVDY50W-G3BP1 remains diffuse in the cytoplasm.

phospho-eIF2a and ATF4 = experiment: Western blotting for integrated stress response (ISR) components; details: total protein of cells with blue light induced stress granules
Source text: FIGS. 21A-21B. […] Total cellular protein from blue light induced stress granules using G3BP1-NcVVDY50W protein arrangement was collected.

HEK293 cells = experiment: Blue light induced stress granules: staining for stress granule markers and mRNA; details: blue light stimulation
Source text: FIGS. 2A-2B. Blue light induced stress granules using a NcVVDY50W-G3BP1 protein arrangement. […] A DNA arrangement that generates the NcVVDY50W-G3BP1 was developed and expressed in HEK293 cells. Under normal conditions, the NcVVDY50W-G3BP1 remains diffuse in the cytoplasm. When endogenous stress granule formation is induced with heat shock, the NcVVDY50W-G3BP1 forms stress granules that stain positive for key markers including Ataxin-2 and TIAR.
FIG. 5. […] Under normal conditions, G3BP1-NcVVDY50W remains diffuse in the cytoplasm. When endogenous stress granule formation is induced with NaAsO2 (0.5 mM, 30 min treatment), the G3BP1-NcVVDY50W forms stress granules that stain positive for key markers TDP-43 and eIF4G. […] As an example of this technology, DNA arrangements were developed that generated G3BP1-NcVVDY50W, and expressed in HEK293 cells. Under normal conditions, the G3BP1-NcVVDY50W remains diffuse in the cytoplasm. When endogenous stress granule formation is induced with sodium arsenite, the G3BP1-NcVVDY50W forms stress granules that probe positive for key markers, including TDP-43 and eIF4G. […] Inserts are 3D images of stress granules indicated by arrows.
While stress granule dynamics are shown to be altered in these diseases, the true contributions of stress granules to disease pathobiology is unknown since the only current method to form these organelles is to introduce an extracellular stressor (e.g. heat stress at 43° C., exposure to sodium arsenite) which is toxic to cells and ultimately kills the cells being studied. The longest studies of stress granules to date are only on the order of a few hours and so, the importance of these organelles in the initiation of neurodegeneration or cancer cannot be assessed. Therefore, a method to control stress granule formation was developed using light, without the need for any extracellular stressors. To achieve this, the DNA encoding specific photoreceptor protein domains that self-bind with blue light exposure were linked to the DNA of a key protein required for the formation of stress granules, G3BP1 or TIA1. These arrangements were then expressed in HEK293 cells and were tested for their ability to form functional stress granules with various blue light treatment paradigms. It was shown that the LOV photoreceptor domain, from the Vivid protein of N. crassa, which is known to dimerize with blue light exposure, when fused to G3BP1 and exposed to 15-1080 min of 465 nm light at 0.1-1.0 mW/cm2 initiates the formation of a core stress granule structure consisting of the photoreceptors fused to G3BP1 that recruits additional G3BP1 and accessory proteins that comprise stress granules and allow for their maturation. This likely involved the liquid-liquid phase separation (LLPS) and dimerization and oligomerization of G3BP1 (concept represented in FIG. 1).

With “G3BP1-NcVVDY50W: G3BP1 Full Length Protein with NcVivid Y50W, SEQ ID NO: 16” the “reduction in protein synthesis with light-induced stress granules” value (protein synthesis; blue light stimulation 30 minutes, HPG for one hour) was 40%, the “protein synthesis (HPG signal) with light-induced stress granules” value (protein synthesis; blue light stimulation, Click-iT detection) was “little to no HPG signal” and the “colocalization of blue light induced stress granules with Ataxin-2” value [1] was “colocalize with the key stress granule marker Ataxin-2”. The “induction of cell stress (phospho-eIF2a, ATF4)” value (phospho-eIF2a and ATF4) was “do not induce a cell stress”, the “colocalization of blue light induced stress granules with stress granule markers” value (HEK293 cells) was “colocalize with the key translation factor eIF4G, and the stress granule marker Ataxin-2; also recorded: colocalize with the key stress granule markers TIAR and G3BP; also recorded: probe positive for TDP-43 and eIF4G; also recorded: colocalize with the key stress granule markers RPS6 and eIF4G (FIG. 6A), as well as Ataxin-2 and RPS3; also recorded: colocalize with the key stress granule markers PABPC1 and G3BP (FIG. 7A), as well as eIF3H and eIF4G; also recorded: colocalize with the key stress granule markers FUS and G3BP; also recorded: colocalize with the key stress granule marker Ataxin-2, but not RPL36a” and the “mRNA sequestration by blue light induced stress granules” value (HEK293 cells) was “sequester cytoplasmic mRNA”.
